This is an account of results in PubChem BioAssay (NCI).

Where “and” joins values, the source holds several entries; their conditions need not be identical. Equal values may be shown once.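 Protocol summary: plate cells (96-well), add compound at 5 concentrations, incubate 48 h, interpolate endpoints linearly. At the GI50, growth is halved. The concentration for full growth arrest is given as TGI.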

Assay in all cases: NCI tumour cell line growth inhibition, 48 h
Assay [1] relates to SNB-19 CNS.
Assay [2] relates to MOLT-4 leukemia.
For assay [3], the system named is HOP-62 NSCLC.
Assay [4] deals with A549 NSCLC.
In assay [5] the test system is SF-268 CNS.
The test system of assay [6] is NCI-H522 lung.
For assay [7], the system named is U251 CNS.
Assay [8] concerns MCF7 breast.
The subject of assay [9] is SF-295 CNS.
For assay [10], the system named is UACC-257 melanoma.

As to `C=C(C)C(O)CCC1(C)C=Cc2c(c(C)cc3c2[nH]c2ccccc23)O1` (stereo unspecified), the GI50 in assay [1] is 11.5 µM; in assay [2] it was 3470 nM; in [3], 2470 nM; in [4], 5.02 µM; in assay [5] it was 5.6 µM; in assay [6], 3.29 µM. Moreover, the TGI in [1] was 25 µM and 23.6 µM; in assay [2], 18.7 µM and 13.8 µM; in [3], 9.46 µM and 6.11 µM; in assay [4], 25 µM and 16.1 µM; in assay [5], 25 µM and 19.3 µM; in assay [6], 11.3 µM and 9.34 µM. Further, the TGI in [7] is 11.1 µM and 17.6 µM; in [8], 26.4 µM; in assay [9], 14.8 µM; in assay [10] it was 20.5 µM.

In the case of `CCN(Cc1cc(Nc2nc(C)cn3c(-c4cn[nH]c4)cnc23)sn1)C(C)(C)CO`, the GI50 in assay [1] is 0.11 µM; in [2], 46.5 nM; in [3], 41.1 nM; in [4], 0.0543 µM; in [5] it was 0.0376 µM; in assay [6], 0.0227 µM. The GI50 in assay [7] was 28.9 nM; in [8] it was 26 nM; in assay [9], 46.8 nM; in assay [10], 0.622 µM. Further, the TGI in [1] was 9.57 µM; in assay [2], 12.4 µM; in assay [3] it was 0.688 µM; in assay [4], 2.21 µM; in assay [5], 1.87 µM; in [6], 2.26 µM. Further, the TGI in assay [7] was 2.21 µM; in assay [8], 2.01 µM; in assay [9], 3.36 µM; in assay [10] it was 9.93 µM.

For the compound `C=C(C)[C@@H]1CC[C@]2(C)CC[C@]3(C)[C@H](CC[C@@H]4[C@@]5(C)CC[C@H](O)C(C)(C)[C@@H]5CC[C@]43C)[C@@H]12`, the TGI in assay [1] was greater than 62.8 µM; in assay [2] it was greater than 70.3 µM; in assay [3], greater than 100 µM; in [4], greater than 100 µM; in assay [5], greater than 100 µM; in [6], 55.7 µM. Further, the TGI in assay [7] is 41 µM; in [8] it was 55.2 µM; in assay [9], greater than 82.7 µM; in [10], greater than 80.8 µM.

Turning to `O=c1[nH]nnc2c1ncn2C1OC(CO)C(O)C1O` (stereo unspecified), the GI50 was greater than 100 µM in [1]; 2070 nM in assay [2]; 10700 nM in [3]; 75.7 µM in [4]; 19.1 µM in assay [5]; 6.49 µM in assay [6]. The GI50 was 41500 nM in [7], 17300 nM in [8], 1650 nM in [9] and 14.1 µM in assay [10]. Besides, the TGI in assay [1] was greater than 100 µM; in [2], 36 µM; in assay [3], greater than 100 µM; in assay [4], greater than 100 µM; in assay [5], greater than 100 µM; in assay [6] it was greater than 100 µM. The TGI in [7] is greater than 100 µM; in [8] it was greater than 100 µM; in [9], 47 µM; in [10], greater than 100 µM.

Take `O=C1C(Cl)=C(Nc2cccc(F)c2)C(=O)N1Cc1ccc(Cl)cc1`: the GI50 was 2.57 µM in [1]; 506 nM in assay [2]; 974 nM in assay [3]; 1.73 µM in assay [4]; 1.43 µM in assay [5]; 3.09 µM in [6]. Besides, the GI50 is 337 nM in [7], 1060 nM in assay [8], 1160 nM in assay [9] and 3.95 µM in [10]. The TGI in assay [1] was 16.1 µM; in [2], greater than 100 µM; in [3], 7.19 µM; in assay [4] it was 16.9 µM; in assay [5] it was 8.07 µM; in assay [6], 13.3 µM. For the same compound, the TGI was greater than 32 µM in [7], 7.91 µM in assay [8], 10.9 µM in assay [9] and 20.8 µM in assay [10].

Turning to `C[C@]12CC[C@@H]3c4ccc(OC(=O)N(CCCl)CCCl)cc4CC[C@H]3[C@@H]1CC[C@@H]2O`, the GI50 is 7.04 µM in assay [1]; 1780 nM in assay [2]; 2440 nM in assay [3]; 2.46 µM in assay [4]; 3.48 µM in assay [5]; 2.53 µM in [6]. For the same compound, the GI50 was 2580 nM in [7], 1080 nM in [8], 819 nM in [9] and 3.81 µM in assay [10]. For the same compound, the TGI is 8.15 µM in assay [2]; 18.9 µM and 3.14 µM in assay [5]; 15.2 µM in [6]; 13.8 µM and 26.9 µM in assay [7]; 4.14 µM in assay [9]; 15 µM in assay [10].

As to `CC(C)Cn1cnc2c(SCc3ccc(Cl)cc3Cl)nc(N)nc21`, the TGI in assay [1] is greater than 100 µM; in assay [2], 26.9 µM; in assay [3], greater than 100 µM; in [4], greater than 100 µM; in [5] it was greater than 100 µM; in assay [6] it was 37 µM. In addition, the TGI in assay [7] is greater than 100 µM; in assay [8] it was 47.8 µM; in assay [9] it was greater than 100 µM; in assay [10], 74.6 µM.

In the case of `CCOC(=O)N1CCN(/[N+]([O-])=N/Oc2ccc([N+](=O)[O-])cc2[N+](=O)[O-])CC1`, the GI50 in assay [1] is 6.68 µM; in [2] it was 482 nM; in assay [3], 3140 nM; in assay [4], 3.63 µM; in assay [5] it was 3.86 µM; in assay [6], 4.36 µM. The GI50 was 1550 nM in assay [7], 365 nM in [8], 1730 nM in [9] and 2.27 µM in assay [10]. Besides, the TGI in assay [1] turned out to be 20.7 µM; in [3] it was 13.6 µM; in assay [4] it was 14.1 µM; in assay [5] it was 10.6 µM; in [6], 22.4 µM; in assay [7], 21.5 µM. Besides, the TGI in assay [8] was determined as 8.16 µM; in [9], 4.56 µM; in assay [10] it was 7 µM.

As to `CNC(=O)Nc1nc2ccc([N+](=O)[O-])cc2[nH]1`, the TGI in assay [1], in assay [2], in assay [3], in assay [4], in assay [5] and in assay [6] was greater than 100 µM in each case. The TGI in assay [7], in assay [8], in [9] and in [10] was greater than 100 µM in each case.
